The values below come from US20180186769A1, “6-AMINO-5-FLUORO-5-(FLUOROMETHYL)-2,3,4,5-TETRAHYDROPYRIDIN-2-YL-PHENYL-5-(METHOXY-D3)-PYRAZINE-2-CARBOXAMIDES AND FLUORINATED DERIVATIVES THEREOF AS BACE1 INHIBITORS” (H. Lundbeck A/S, priority 2016, published 2018).

The term pKi denotes the Ki on a negative log10 scale, so that one unit is a factor of ten. A higher pKi goes with a low Ki. The inhibition is how much of the control response was suppressed. Read a low inhibition as a response near the control. Usually efflux ratio stands for the permeability from basolateral to apical divided by that in the opposite direction, in the common usage.

The target of series [1] is T1, BACE1 (Homo sapiens, UniProt P56817). Put plainly: BACE1 binding assay (SPA-based). The arrangement: biotin (biotinylated form); made in house; host or cells: Freestyle HEK293 cells. Particulars: pH 4.5, 10 nM radioligand. On the procedure: The binding assay was performed as SPA-based assay using a biotinylated form of human BACE1 recombinantly expressed and subsequently purified from Freestyle HEK293 cells. The binding assay was run in a 50 mM sodium acetate buffer, pH 4.5 containing 50 mM NaCl and 0.03% Tween-20 in white clear bottom 384 plates (Corning #3653). […] The plates were incubated for one hour at room temperature and counted in a Wallac Trilux counter. Total and non-specific binding were determined using buffer and 1 μM (final concentration) of the high affinity BACE1 reference inhibitor (S)-6-[3-chloro-5-(5-prop-1-ynyl-pyridin-3-yl)-thiophen-2-yl]-2-imino-3,6-dimethyl-tetrahydro-pyrimidin-4-one, respectively. For each test compound, a IC50 value (the concentration mediating 50% inhibition of the specific binding of the radioligand) was determined from concentration-response curve and used to calculate the Ki from the equation Ki=IC50/(1+L/Kd), where L and Kd are the final concentration of the radioligand used in the assay and the dissociation constant of the radioligand, respectively. The Kd of the radioligand was determined from saturation binding experiments.
T1 sequence (P56817 46-501): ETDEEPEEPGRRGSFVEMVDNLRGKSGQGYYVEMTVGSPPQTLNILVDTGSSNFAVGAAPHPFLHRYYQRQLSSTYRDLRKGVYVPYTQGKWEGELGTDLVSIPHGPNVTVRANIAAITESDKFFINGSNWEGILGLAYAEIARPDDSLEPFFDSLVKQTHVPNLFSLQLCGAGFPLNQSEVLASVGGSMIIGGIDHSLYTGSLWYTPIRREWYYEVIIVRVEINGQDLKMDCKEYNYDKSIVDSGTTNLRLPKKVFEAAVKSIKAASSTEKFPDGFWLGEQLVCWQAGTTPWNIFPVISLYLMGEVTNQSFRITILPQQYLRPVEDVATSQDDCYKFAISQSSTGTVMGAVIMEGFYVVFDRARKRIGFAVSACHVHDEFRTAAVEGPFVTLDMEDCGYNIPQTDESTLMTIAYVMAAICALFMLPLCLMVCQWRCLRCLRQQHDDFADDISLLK

Series [2] addresses T1, BACE1. Put plainly: BACE1 efficacy assay (FRET-based). The class given is biochemical. Particulars: 10 μM test compound. The arrangement: purchased Life Technologies P2985. Here is the method: The efficacy assay was performed as a FRET-based assay using a commercially available BACE1 kit (Life Technologies, P2985). 2 μl test compound at 10 μM (final concentration) and 15 μl BACE1 enzyme from the kit (final concentration 3 nM) were preincubated for 15 minutes at room temperature before addition of 15 μl of substrate from the kit (250 nM final concentration) and incubated for additional 90 minutes at room temperature. The assay plate was subsequently read in a Pherastar (Ex540/Em590). The enzyme activity observed in presence of test compound were normalized to the enzyme activity observed in presence of buffer and 10 μM (final concentration) of the high affinity BACE1 reference inhibitor (S)-6-[3-Chloro-5-(5-prop-1-ynyl-pyridin-3-yl)-thiophen-2-yl]-2-imino-3,6-dimethyl-tetrahydropyrimidin-4-one, respectively. The efficacy of the test compounds was evaluated at 10 μM (final concentration) and defined as the percent inhibition of the enzyme activity using the equation % inhibition=100%−normalized enzyme activity in percent.

Series [3] relates to P-gp (MDR1). Put plainly: MDCK-MDR1 assay (permeability, efflux ratio). In kind it is in vitro ADME. Particulars: dog, Papp BA/Papp AB. Here is the method: The permeability of the test compounds was assessed in MDCK-MDR1 cells that were cultured to confluency (4-6 days) in a 96 transwell plate. Test compounds were diluted with the transport buffer (HBSS+1% BSA) to a concentration of 0.5 μM and applied to the apical or basolateral side of the cell monolayer. Permeation of the test compounds from A to B direction or B to A direction was determined in triplicate over a 60-minute incubation time at 37° C. and 5% CO2 with a relative humidity of 95%. Test compounds were quantified by LC-MS/MS analysis based on the peaks area ratios of analyte/IS in both the receiver and donor wells of the transwell plate.
The apparent permeability coefficient Papp (cm/s) was calculated using the equation: […]
Where dCr/dt is the cumulative concentration of compound in the receiver chamber as a function of time (μM/s); Vr is the solution volume in the receiver chamber (0.05 mL on the apical side; 0.25 mL on the basolateral side); A is the surface area for the transport, i.e. 0.0804 cm^2 for the area of the monolayer; CO is the initial concentration in the donor chamber (μM).
Compounds are classified Pgp substrates when efflux ratio (Papp BA/Papp AB) is ≥2.

The nature of series [4]: Clearance in hepatocytes, rat. The class given is in vitro ADME. Particulars: read-out: CLint, Rat (L/h/kg) ± SD (converted). The source says: (§1) Deuterated compounds were compared to their non-deuterated parent counterparts to determine the impact of deuteration on clearance results
A short description of series [5]: Clearance in microsomes, rat. The class given is in vitro ADME. Particulars: 1 microM, read-out: CLint, Rat (L/h/kg) ± SD (converted).
Source text: as §1

Each structure is given as a SMILES string. pKi: −log10 of the molar value.

`[2H]C([2H])([2H])Oc1cnc(C(=O)Nc2ccc(F)c([C@]3(C)CC[C@@](F)(CF)C(N)=N3)c2)cn1` [Example 1, N-(3-((2S,5S)-6-amino-5-fluoro-5-(fluoromethyl)-2-methyl-2,3,4,5-tetrahydropyridin-2-yl)-4-fluorophenyl)-5-(methoxy-d3)pyrazine-2-carboxamide] had a pKi in series [1] of 7.77. In series [2], the inhibition at 10 µM was found to be 100%. The efflux ratio at 60 min, 0.5 μM in series [3] was 1.39. In series [4] (0.1 microM), the CLint scaled at 0.1 µM was 1.5 L/h/kg. Moreover, the CLint scaled at 0.3 µM in series [4] (0.3 microM) was 1.2 L/h/kg. The values for the CLint scaled at 1 µM in series [4] (1 microM) and in series [5] were less than 0.4 L/h/kg and 0.9 L/h/kg, respectively.
